PubChem BioAssay (NCI)
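Following 48 hours of exposure in 96-well plates, responses at five concentrations were used to interpolate endpoints linearly. Abbreviation: GI50, concentration required for 50% inhibition of growth. TGI: concentration producing complete growth inhibition.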

How the values were obtained:
Test in all cases: NCI anticancer screen, dose series, 48 h
SW-620 colon = system: SW-620 colon
RPMI-8226 leukemia = system: RPMI-8226 leukemia
NCI-H522 lung = system: NCI-H522 lung
MALME-3M melanoma = system: MALME-3M melanoma
MCF7 breast = system: MCF7 breast
HCT-15 colon = system: HCT-15 colon
RXF 393 renal = system: RXF 393 renal
NCI/ADR-RES ovarian = system: NCI/ADR-RES ovarian
HS 578T breast = system: HS 578T breast
KM12 colon = system: KM12 colon
OVCAR-5 ovarian = system: OVCAR-5 ovarian
SK-MEL-2 melanoma = system: SK-MEL-2 melanoma
SF-268 CNS = system: SF-268 CNS
A498 renal = system: A498 renal
NCI-H226 lung = system: NCI-H226 lung
SK-MEL-5 melanoma = system: SK-MEL-5 melanoma
LOX IMVI melanoma = system: LOX IMVI melanoma
UO-31 renal = system: UO-31 renal
U251 CNS = system: U251 CNS
HCC-2998 colon = system: HCC-2998 colon
OVCAR-8 ovarian = system: OVCAR-8 ovarian
NCI-H23 lung = system: NCI-H23 lung
HOP-62 NSCLC = system: HOP-62 NSCLC
HOP-92 NSCLC = system: HOP-92 NSCLC
M14 melanoma = system: M14 melanoma
SR leukemia = system: SR leukemia
OVCAR-4 ovarian = system: OVCAR-4 ovarian
SK-MEL-28 melanoma = system: SK-MEL-28 melanoma
DU-145 prostate = system: DU-145 prostate
MOLT-4 leukemia = system: MOLT-4 leukemia
ACHN renal = system: ACHN renal
SK-OV-3 ovarian = system: SK-OV-3 ovarian
CCRF-CEM leukemia = system: CCRF-CEM leukemia
HCT-116 colon = system: HCT-116 colon
HT29 colon = system: HT29 colon
MDA-MB-435 = system: MDA-MB-435
MDA-MB-231 breast = system: MDA-MB-231 breast
COLO 205 colon = system: COLO 205 colon
SN12C renal = system: SN12C renal
NCI-H460 lung = system: NCI-H460 lung
SNB-75 CNS = system: SNB-75 CNS
OVCAR-3 ovarian = system: OVCAR-3 ovarian
UACC-257 melanoma = system: UACC-257 melanoma
T-47D breast = system: T-47D breast
A549 NSCLC = system: A549 NSCLC
786-0 renal = system: 786-0 renal
UACC-62 melanoma = system: UACC-62 melanoma
BT-549 breast = system: BT-549 breast
HL-60(TB) leukemia = system: HL-60(TB) leukemia
K-562 leukemia = system: K-562 leukemia
SF-539 CNS = system: SF-539 CNS
SNB-19 CNS = system: SNB-19 CNS
CAKI-1 renal = system: CAKI-1 renal
IGROV1 ovarian = system: IGROV1 ovarian
PC-3 prostate = system: PC-3 prostate
SF-295 CNS = system: SF-295 CNS

What does the source list for `O=C(CI)OCC(COC(=O)CI)OC(=O)CI`?
GI50 (SW-620 colon): 1.92 µM; TGI (SW-620 colon): 4 µM; GI50 (RPMI-8226 leukemia): 2.22 µM; TGI (RPMI-8226 leukemia): 4.96 µM; GI50 (NCI-H522 lung): 0.506 µM; TGI (NCI-H522 lung): 1.27 µM; GI50 (MALME-3M melanoma): 1.6 µM; TGI (MALME-3M melanoma): 3.29 µM; GI50 (MCF7 breast): 3.38 µM; TGI (MCF7 breast): 14.8 µM; GI50 (HCT-15 colon): 1.73 µM; TGI (HCT-15 colon): 3.61 µM; GI50 (RXF 393 renal): 2.4 µM; TGI (RXF 393 renal): 7.55 µM; GI50 (NCI/ADR-RES ovarian): 18.4 µM; TGI (NCI/ADR-RES ovarian): 45.3 µM; GI50 (HS 578T breast): 4.88 µM; TGI (HS 578T breast): 27.7 µM; GI50 (KM12 colon): 11.7 µM; TGI (KM12 colon): 26.8 µM; GI50 (OVCAR-5 ovarian): 16.4 µM; TGI (OVCAR-5 ovarian): 32.8 µM; GI50 (SK-MEL-2 melanoma): 10.3 µM; TGI (SK-MEL-2 melanoma): 25.5 µM; GI50 (SF-268 CNS): 13.2 µM; TGI (SF-268 CNS): 29.5 µM; GI50 (A498 renal): 10.9 µM; TGI (A498 renal): 26.7 µM; GI50 (NCI-H226 lung): 15.6 µM; TGI (NCI-H226 lung): 38.8 µM; GI50 (SK-MEL-5 melanoma): 13.8 µM; TGI (SK-MEL-5 melanoma): 27.6 µM; GI50 (LOX IMVI melanoma): 1.03 µM; TGI (LOX IMVI melanoma): 3 µM; GI50 (UO-31 renal): 1.39 µM; TGI (UO-31 renal): 2.84 µM; GI50 (U251 CNS): 11.9 µM; TGI (U251 CNS): 25.2 µM; GI50 (HCC-2998 colon): 16.3 µM; TGI (HCC-2998 colon): 31.3 µM; GI50 (OVCAR-8 ovarian): 2.53 µM; TGI (OVCAR-8 ovarian): 6.92 µM; GI50 (NCI-H23 lung): 5.36 µM; TGI (NCI-H23 lung): 19.6 µM; GI50 (HOP-62 NSCLC): 10.8 µM; TGI (HOP-62 NSCLC): 27.8 µM; GI50 (HOP-92 NSCLC): 1.86 µM; TGI (HOP-92 NSCLC): 4.03 µM; GI50 (M14 melanoma): 7.57 µM; TGI (M14 melanoma): 22 µM; GI50 (SR leukemia): 2.36 µM; TGI (SR leukemia): 7.58 µM; GI50 (OVCAR-4 ovarian): 1.8 µM; TGI (OVCAR-4 ovarian): 4.3 µM; GI50 (SK-MEL-28 melanoma): 5.54 µM; TGI (SK-MEL-28 melanoma): 16 µM; GI50 (DU-145 prostate): 8.62 µM; TGI (DU-145 prostate): 22.3 µM; GI50 (MOLT-4 leukemia): 2.06 µM; TGI (MOLT-4 leukemia): 4.57 µM; GI50 (ACHN renal): 1.84 µM; TGI (ACHN renal): 3.37 µM; GI50 (SK-OV-3 ovarian): 17.3 µM; TGI (SK-OV-3 ovarian): 31.1 µM; GI50 (CCRF-CEM leukemia): 1.73 µM; TGI (CCRF-CEM leukemia): 3.95 µM; GI50 (HCT-116 colon): 1.67 µM; TGI (HCT-116 colon): 3.41 µM; GI50 (HT29 colon): 2.92 µM; TGI (HT29 colon): 8.91 µM; GI50 (MDA-MB-435): 10.6 µM; TGI (MDA-MB-435): 23.5 µM; GI50 (MDA-MB-231 breast): 9.3 µM; TGI (MDA-MB-231 breast): 24.6 µM; GI50 (COLO 205 colon): 1.88 µM; TGI (COLO 205 colon): 3.52 µM; GI50 (SN12C renal): 4.01 µM; TGI (SN12C renal): 15 µM; GI50 (NCI-H460 lung): 18 µM; TGI (NCI-H460 lung): 36.9 µM; GI50 (SNB-75 CNS): 13.7 µM; TGI (SNB-75 CNS): 29.3 µM; GI50 (OVCAR-3 ovarian): 2.07 µM; TGI (OVCAR-3 ovarian): 3.94 µM; GI50 (UACC-257 melanoma): 4.06 µM; TGI (UACC-257 melanoma): 15.4 µM; GI50 (T-47D breast): 1.98 µM; TGI (T-47D breast): 4.46 µM; GI50 (A549 NSCLC): 16.8 µM; TGI (A549 NSCLC): 35.5 µM; GI50 (786-0 renal): 2.38 µM; TGI (786-0 renal): 6.28 µM; GI50 (UACC-62 melanoma): 3.05 µM; TGI (UACC-62 melanoma): 12.3 µM; GI50 (BT-549 breast): 4.56 µM; TGI (BT-549 breast): 15.7 µM; GI50 (HL-60(TB) leukemia): 1.99 µM; TGI (HL-60(TB) leukemia): 4.19 µM; GI50 (K-562 leukemia): 2.39 µM; TGI (K-562 leukemia): 5.73 µM; GI50 (SF-539 CNS): 13.7 µM; TGI (SF-539 CNS): 27.2 µM; GI50 (SNB-19 CNS): 16.5 µM; TGI (SNB-19 CNS): 32.7 µM; GI50 (CAKI-1 renal): 1.96 µM; TGI (CAKI-1 renal): 3.91 µM; GI50 (IGROV1 ovarian): 1.75 µM; TGI (IGROV1 ovarian): 3.5 µM; GI50 (PC-3 prostate): 6.46 µM; TGI (PC-3 prostate): 20.7 µM; GI50 (SF-295 CNS): 16.3 µM; TGI (SF-295 CNS): 32 µM
